How the values were obtained:
[1] = molecular target: T1, water-insoluble glucan producing enzyme (Streptococcus downei, UniProt P27470); test: Effect of saccharides on formation of water-insoluble glucan from sucrose (Experiment 3); assay type: biochemical, Streptococcus mutans 6715 strain; conditions: 1 ml 4 w/v % sucrose plus 1 ml 4 w/v % saccharide, 0.02 units enzyme, 37° C., 16 hours; for A: amounts of water-insoluble glucan formed: sucrose control 300
T1 construct: endogenous in cells; host or cells: Streptococcus mutans 6715 strain (today S. sobrinus), culture supernatant, ammonium sulfate precipitate, dialyzed
Protocol: After completion of the cultivation, the culture was separated into cell precipitant and supernatant. Thereafter, to the supernatant was added with ammonium sulfate to give 60% saturation, and the resultant precipitant was dialyzed against 0.1M phosphate buffer (pH 7.2) to obtain an aqueous solution containing the enzyme.
The titers of the enzyme were assayed as follows: A mixture solution, consisting of 1 ml of 0.2M aqueous sucrose solution, 1 ml of water, 1 ml of 0.1M phosphate buffer containing 0.05 w/v % NaN3, and 0.5 ml of the enzyme solution (below 0.05 units), is incubated at 37° C. for 9 hours, followed by centrifugation of the reaction mixture. The resultant precipitant is mixed with 4 ml of 0.5N sodium hydroxide solution, and then incubated at this temperature for an additional one hour to dissolve the precipitant. The amount of water-insoluble glucan formed during the enzymatic reaction is then measured. One unit of the enzyme is defined as the amount of enzyme that transfers 1 μmole glucose from sucrose to the water-insoluble glucan in one minute.
Effects of some saccharides on the formation of water-insoluble glucan were tested: Water-insoluble glucan formation and inhibition thereof were determined according to the enzyme assay method as described in EXPERIMENT 1, except that the mixture solution contained sucrose, or sucrose and each saccharide as listed in TABLE I. The experiment was carried out as follows: A mixture solution, consisting of 1 ml of 4 w/v % aqueous sucrose solution, 1 ml of 4 w/v % aqueous solution of each saccharide as listed in TABLE I, 1.5 ml of 0.1M phosphate buffer containing 0.05 w/v % NaN3, and 0.5 ml of the enzyme solution (0.02 units), was incubated at 37° C. for 16 hours, and the water-insoluble glucan formation in the reaction mixture was determined according to the enzyme assy method.
In a control experiment, 1 ml of the above described saccharide solution was replaced with the same amount of water.
The inhibition degree was calculated with following equation:
Inhibition degree (%)=100-A/B×100
where A and B are respective amounts of the water-insoluble glucan formed (μg/ml) when the mixture solution contained sucrose or sucrose and each of the saccharides.

[2] = test system: Streptococcus mutans 6715 strain; test: Organic acid formation from saccharides by Streptococcus mutans cells, pH-measurement (Experiment 4); assay type: cell-based; conditions: 37° C., 30 minutes; for pH-Level of the reaction mixture (organic acid formation): cell suspension, Stephan's buffer (pH 7.0), saccharide solution; for organic acid formation from the saccharide: Streptococcus mutans 6715 cells
Protocol: Organic acid formation from some saccharides by Streptococcus mutans was tested: Streptococcus mutans 6715 strain was cultivaed similarly as in EXPERIMENT 1, and the cells, obtained by centrifuging the culture, were washed with 0.9 w/v % sodium chloride solution, followed by additional centrifugation. Two ml of a mixture solution, consisting of 0.2 ml of the cell suspension, prepared from about 100 ml of the culture, 1.5 ml of Stephan's buffer, and 0.3 ml aqueous solution of each saccharide as listed in TABLE II, was incubated at 37° C. for 30 minutes, followed by pH-measurement of the reaction mixture. The Stephan's buffer was prepared by the method as reported by R. M. Stephan et al., Journal of Dental Research, Vol.26, pp.15-41 (1947): One ml of Solution I, prepared by dissolving 17.89 g Na2 HPO4. 12H2 O, 7.92 g KOH and 6.81 g KH2 PO4 in water to give a final volume of 100 ml, was placed in a 100-ml volumetric flask, and mixed with about 90 ml of water. To the flask was added 1 ml of Solution II, prepared by dissolving 4.54 g KH2 PO4, 0.32 g MgSO4.7H2 O, 0.57 g CaSO4.2H2 O and 10 ml of 3.5% hydrochloric acid solution in water to give a final volume of 100 ml. This mixture was diluted with additional water to obtain 100 ml of Stephan's buffer (pH 7.0).
The results are given in TABLE II, wherein the organic acid formation from the saccharides can be estimated by the pH-values.

T1 sequence (P27470 39-1592): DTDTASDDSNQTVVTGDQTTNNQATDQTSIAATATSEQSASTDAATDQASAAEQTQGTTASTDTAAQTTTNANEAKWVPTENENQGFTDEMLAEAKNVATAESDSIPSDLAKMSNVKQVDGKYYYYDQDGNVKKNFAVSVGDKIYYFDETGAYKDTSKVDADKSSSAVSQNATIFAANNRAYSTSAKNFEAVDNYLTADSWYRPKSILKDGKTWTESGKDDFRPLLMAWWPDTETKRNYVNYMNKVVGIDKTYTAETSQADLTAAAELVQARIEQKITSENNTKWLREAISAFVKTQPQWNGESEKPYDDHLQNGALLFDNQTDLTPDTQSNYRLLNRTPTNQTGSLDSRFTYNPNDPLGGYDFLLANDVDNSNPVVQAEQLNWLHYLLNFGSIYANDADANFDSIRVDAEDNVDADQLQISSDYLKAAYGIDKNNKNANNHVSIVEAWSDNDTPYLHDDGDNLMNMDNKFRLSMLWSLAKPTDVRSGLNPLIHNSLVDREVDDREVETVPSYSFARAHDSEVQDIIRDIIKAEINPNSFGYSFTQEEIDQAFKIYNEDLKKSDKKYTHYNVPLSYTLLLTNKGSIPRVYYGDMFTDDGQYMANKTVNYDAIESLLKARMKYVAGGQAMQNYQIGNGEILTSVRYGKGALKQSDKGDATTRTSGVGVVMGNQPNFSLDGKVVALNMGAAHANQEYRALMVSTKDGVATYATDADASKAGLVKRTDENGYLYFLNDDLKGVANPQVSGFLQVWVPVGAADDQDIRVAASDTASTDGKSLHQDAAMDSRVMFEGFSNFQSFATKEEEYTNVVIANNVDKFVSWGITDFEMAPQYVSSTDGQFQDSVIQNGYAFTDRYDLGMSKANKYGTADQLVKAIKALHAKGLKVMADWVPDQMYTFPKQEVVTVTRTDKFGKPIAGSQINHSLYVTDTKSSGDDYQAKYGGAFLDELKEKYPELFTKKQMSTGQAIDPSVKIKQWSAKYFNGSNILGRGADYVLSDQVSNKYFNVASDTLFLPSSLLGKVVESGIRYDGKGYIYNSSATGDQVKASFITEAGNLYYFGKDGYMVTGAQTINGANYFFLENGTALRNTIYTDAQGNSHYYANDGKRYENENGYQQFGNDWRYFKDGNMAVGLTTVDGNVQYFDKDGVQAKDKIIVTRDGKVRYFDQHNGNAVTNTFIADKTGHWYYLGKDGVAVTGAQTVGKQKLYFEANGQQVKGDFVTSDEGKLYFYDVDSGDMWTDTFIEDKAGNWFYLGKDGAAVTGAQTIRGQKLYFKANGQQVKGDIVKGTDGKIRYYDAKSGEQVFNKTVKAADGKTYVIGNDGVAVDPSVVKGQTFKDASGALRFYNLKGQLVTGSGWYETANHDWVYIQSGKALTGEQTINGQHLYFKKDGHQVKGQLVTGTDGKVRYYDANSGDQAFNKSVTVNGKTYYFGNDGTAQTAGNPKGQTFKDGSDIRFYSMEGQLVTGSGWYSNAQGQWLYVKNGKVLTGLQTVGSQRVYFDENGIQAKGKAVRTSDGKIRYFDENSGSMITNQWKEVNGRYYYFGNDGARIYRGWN

`OC[C@H]1O[C@@H](O[C@@H]2[C@@H](CO)OC(O)(CO)[C@H]2O)[C@H](O)[C@@H](O)[C@H]1O` (mixture of isomers) [Lactulose] was tested, and the “B: inhibition degree on water-insoluble glucan formation” value (“B: inhibition degree” below) [1] was 12%, the “A: amounts of water-insoluble glucan formed” value (“A: amounts” for short) [1] was 264 µg/mL and the “pH-Level of the reaction mixture (organic acid formation)” value (shortened to “pH-Level of the reaction mixture”) [2] was 7.0.

With `OC[C@H]1OC(O)C[C@@H](O)[C@@H]1O` (some centres unmarked) [2-Deoxy Glucose] the “B: inhibition degree” value [1] was 5%, the “A: amounts” value [1] was 285 µg/mL and the “pH-Level of the reaction mixture” value [2] was 7.0.

For `OC[C@H]1O[C@@](CO)(OC[C@H]2O[C@@](CO)(O[C@H]3O[C@H](CO)[C@@H](O)[C@H](O)[C@H]3O)[C@@H](O)[C@@H]2O)[C@@H](O)[C@@H]1O` [6-Kestose], the “B: inhibition degree” value [1] was 3%, the “A: amounts” value [1] was 291 µg/mL and the “pH-Level of the reaction mixture” value [2] was 6.8.

`OC[C@H]1O[C@@H](O[C@H]2[C@H](O)[C@@H](O)C(O)O[C@@H]2CO)[C@H](O)[C@@H](O)[C@@H]1O` (some centres unmarked) [Cellobiose] was tested, and the “pH-Level of the reaction mixture” value [2] was 7.0.

With `OC[C@H]1OC(O)[C@H](O)[C@@H](O)[C@H]1O` (stereo partly drawn) [D-Galactose] the “pH-Level of the reaction mixture” value [2] was 7.0.

With `OC[C@H]1OC(O)[C@H](O)[C@@H](O)[C@@H]1O` (stereo partly drawn) [D-Glucose] the “pH-Level of the reaction mixture” value [2] was 4.0.

For `OC[C@H]1OC(O)[C@@H](O)[C@@H](O)[C@@H]1O` (stereo partly drawn) [D-Mannose], the “pH-Level of the reaction mixture” value [2] was 5.5.

For `OC[C@@H](O)[C@@H](O)CO` [Erythlitol], the “B: inhibition degree” value [1] was 3%, the “A: amounts” value [1] was 290 µg/mL and the “pH-Level of the reaction mixture” value [2] was 7.0.

`OC[C@H]1O[C@@H](OC[C@H]2OC(O)[C@H](O)[C@@H](O)[C@@H]2O)[C@H](O)[C@@H](O)[C@@H]1O` (some centres unmarked) [Gentiobiose] was tested, and the “A: amounts” value [1] was 300 µg/mL and the “pH-Level of the reaction mixture” value [2] was 7.0.

With `OC[C@H](O)[C@@H](O)[C@H](O)[C@H](O)CO[C@H]1O[C@H](CO)[C@@H](O)[C@H](O)[C@H]1O` [Isomaltitol] the “B: inhibition degree” value [1] was 10%, the “A: amounts” value [1] was 270 µg/mL and the “pH-Level of the reaction mixture” value [2] was 7.0.

`OC[C@H](O)[C@@H](O)[C@H](O)[C@H](O)CO[C@H]1O[C@H](CO[C@H]2O[C@H](CO[C@H]3O[C@H](CO[C@H]4O[C@H](CO)[C@@H](O)[C@H](O)[C@H]4O)[C@@H](O)[C@H](O)[C@H]3O)[C@@H](O)[C@H](O)[C@H]2O)[C@@H](O)[C@H](O)[C@H]1O` [Isomaltopentaitol, 6^3 -O-α-isomaltosyl isomaltotriitol] was tested, and the “A: amounts” value [1] was 66 µg/mL, the “organic acid formation from the saccharide” value [2] was “no organic acid formation” and the “pH-Level of the reaction mixture” value [2] was 7.0.

In the case of `OC[C@H]1O[C@H](OC[C@H]2OC(O)[C@H](O)[C@@H](O)[C@@H]2O)[C@H](O)[C@@H](O)[C@@H]1O` (some centres unmarked) [Isomaltose], the “A: amounts” value [1] is reported as 72 µg/mL and the “pH-Level of the reaction mixture” value [2] is reported as 7.0.

In the case of `OC[C@@H](O)[C@@H](O[C@H]1O[C@H](CO)[C@@H](O[C@H]2O[C@H](CO[C@H]3O[C@H](CO)[C@@H](O)[C@H](O)[C@H]3O)[C@@H](O)[C@H](O)[C@H]2O)[C@H](O)[C@H]1O)[C@H](O)[C@@H](O)CO` [Isomaltosyl maltitol, 4^2 -O-α--isomaltosyl maltitol], the “A: amounts” value [1] is reported as 48 µg/mL, the “organic acid formation from the saccharide” value [2] is reported as “no organic acid formation” and the “pH-Level of the reaction mixture” value [2] is reported as 7.0.

For `OC[C@H](O)[C@@H](O)[C@H](O)[C@H](O)CO[C@H]1O[C@H](CO[C@H]2O[C@H](CO[C@H]3O[C@H](CO)[C@@H](O)[C@H](O)[C@H]3O)[C@@H](O)[C@H](O)[C@H]2O)[C@@H](O)[C@H](O)[C@H]1O` [Isomaltotetraitol, 6^2 -O-α-isomaltosyl isomaltitol], the “A: amounts” value [1] was 45 µg/mL, the “organic acid formation from the saccharide” value [2] was “no organic acid formation” and the “pH-Level of the reaction mixture” value [2] was 7.0.

With `OC[C@H](O)[C@@H](O)[C@H](O)[C@H](O)CO[C@H]1O[C@H](CO[C@H]2O[C@H](CO)[C@@H](O)[C@H](O)[C@H]2O)[C@@H](O)[C@H](O)[C@H]1O` [Isomaltotriitol, 6-O-α-isomaltosyl glucitol] the “A: amounts” value [1] was 60 µg/mL, the “organic acid formation from the saccharide” value [2] was “no organic acid formation” and the “pH-Level of the reaction mixture” value [2] was 7.0.

`OC[C@H](O)[C@@H](O)[C@H](O)[C@H](O)CO[C@H]1O[C@H](CO)[C@@H](O[C@H]2O[C@H](CO)[C@@H](O)[C@H](O)[C@H]2O)[C@H](O)[C@H]1O` [Isopannitol] was tested, and the “B: inhibition degree” value [1] was 10%, the “A: amounts” value [1] was 270 µg/mL and the “pH-Level of the reaction mixture” value [2] was 7.0.

With `OC[C@H]1O[C@H](O[C@H]2[C@H](O)[C@@H](O)[C@@H](OC[C@H]3OC(O)[C@H](O)[C@@H](O)[C@@H]3O)O[C@@H]2CO)[C@H](O)[C@@H](O)[C@@H]1O` (some centres unmarked) [Isopanose] the “B: inhibition degree” value [1] was 4%, the “A: amounts” value [1] was 282 µg/mL and the “pH-Level of the reaction mixture” value [2] was 7.0.

In the case of `OC1OC[C@H](O)[C@H](O)[C@H]1O` (stereo partly drawn) [L-Arabinose], the “B: inhibition degree” value [1] is reported as 2%, the “A: amounts” value [1] is reported as 294 µg/mL and the “pH-Level of the reaction mixture” value [2] is reported as 7.0.

With `O=C(CO)[C@@H](O)[C@H](O)[C@@H](O)CO` [L-Sorbose] the “B: inhibition degree” value [1] was 13%, the “A: amounts” value [1] was 261 µg/mL and the “pH-Level of the reaction mixture” value [2] was 7.0.

`OC[C@@H](O)[C@@H](O[C@@H]1O[C@H](CO)[C@H](O)[C@H](O)[C@H]1O)[C@H](O)[C@@H](O)CO` [Lactitol] was tested, and the “pH-Level of the reaction mixture” value [2] was 7.0.

With `OC[C@@H](O)[C@@H](O[C@H]1O[C@H](CO)[C@@H](O)[C@H](O)[C@H]1O)[C@H](O)[C@@H](O)CO` [Maltitol] the “pH-Level of the reaction mixture” value [2] was 7.0.

In the case of `OC[C@H]1O[C@H](O[C@H]2[C@H](O)[C@@H](O)[C@H](O)O[C@@H]2CO)[C@H](O)[C@@H](O)[C@@H]1O` [Maltose], the “pH-Level of the reaction mixture” value [2] is reported as 4.0.

`OC[C@@H](O)[C@@H](O[C@H]1O[C@H](CO)[C@@H](O[C@H]2O[C@H](CO)[C@@H](O[C@H]3O[C@H](CO)[C@@H](O)[C@H](O)[C@H]3O)[C@H](O)[C@H]2O)[C@H](O)[C@H]1O)[C@H](O)[C@@H](O)CO` [Maltotetraitol] was tested, and the “B: inhibition degree” value [1] was 21% and the “A: amounts” value [1] was 236 µg/mL.

With `OC[C@H]1O[C@@](CO)(O[C@H]2O[C@H](CO)[C@@H](O)[C@H](O)[C@H]2O)[C@@H](O)[C@@H]1O` [Sucrose] the “pH-Level of the reaction mixture” value [2] was 4.0.

From patent US4518581A, “Imparting low- or anti-cariogenic property to orally-usable products” (Kabushiki Kaisha Hayashibara Seibutsu Kagaku Kenkyujo, priority 1981, dated 1985)
